Laboratory results published in patent US7999004B2, “Compounds having estrogenic activity” (National Taiwan University, priority 2007, dated 2011).
Read-outs that look alike come from different tables or passages of the source.

Experiments:
[1] = target: T1, GAL4-hERβ (Homo sapiens, UniProt Q92731); assay: Transactivation assay for estrogen activity, GAL4-hERβ LBD chimeric receptor with (UAS)4-alkaline phosphatase reporter in CHO-K1 cells; type: cell-based; conditions: for EC50: CHO-K1 cells, ALP reporter, read-out: EC50 value for ERβ (converted); for maximal activation of ERβ: at the concentration of maximal activation (compound 2: 40 μg/mL; compound 6: 20 μg/mL); for ALP activity with increasing concentration, GAL4-hERβ / concentration at which the maximal activation of ERβ is achieved: dose response curve
T1 construct: GAL4hERα (or β) LBD chimeric receptors; expressed in transfected cells; host or cells: CHO-K1 (CCRC 60006), transient co-transfection with Fugene 6
T1 sequence (Q92731 264-498 limits assumed): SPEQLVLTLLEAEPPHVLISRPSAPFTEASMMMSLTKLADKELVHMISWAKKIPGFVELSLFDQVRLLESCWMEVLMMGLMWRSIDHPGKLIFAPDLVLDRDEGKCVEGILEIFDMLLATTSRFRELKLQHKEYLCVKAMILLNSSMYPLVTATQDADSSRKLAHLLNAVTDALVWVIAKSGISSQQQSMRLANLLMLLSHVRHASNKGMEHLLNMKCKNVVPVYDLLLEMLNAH
Description: (§1) To evaluate the estrogen activity, the pBKCMV plasmid containing the gene of GAL4hERα (or β) LBD chimeric receptors was co-transfected with a plasmid containing the (UAS)4-alkaline phosphatase reporter gene into CHO-K1 cells. When a test sample was reacted with ER, the GAL4 was mediated to bind specifically with the UAS upstream of the reporter gene so as to activate the expression of the reporter gene, i.e. the alkaline phosphatase (ALP) enzyme. By measuring the alkaline phosphatase activity, we can detect the estrogen activity of the sample.
(§2) Cells were grown to confluence and seeded into 96-well microplates for a day. Before transfection, the two plasmids DNA in equal proportions were added to a mixture of the Fugene 6 transfection reagent and Ham's F12 medium, and then incubated for 20 min. At transfection, the fugene 6-DNA mixture was then added to the cells after the original FBS containing medium was removed.
(§3) After a 2-day culture, an aliquot of the medium was taken for the analysis of alkaline phosphatase activity.

[2] = target: T2, GAL4-hERα (Homo sapiens, UniProt P03372); assay: Transactivation assay for estrogen activity, GAL4-hERα LBD chimeric receptor with (UAS)4-alkaline phosphatase reporter in CHO-K1 cells; type: cell-based; conditions: for EC50: CHO-K1 cells, ALP reporter, read-out: EC50 value for ERα (converted); for maximal activation of ERα: at the concentration of maximal activation (compound 2: 40 μg/mL; compound 6: 20 μg/mL); for ALP activity with increasing concentration, GAL4-hERα / concentration at which the maximal activation of ERα is achieved: dose response curve
T2 construct: GAL4hERα (or β) LBD chimeric receptors; expressed in transfected cells; host or cells: CHO-K1 (CCRC 60006), transient co-transfection with Fugene 6
T2 sequence (P03372 311-547 limits assumed): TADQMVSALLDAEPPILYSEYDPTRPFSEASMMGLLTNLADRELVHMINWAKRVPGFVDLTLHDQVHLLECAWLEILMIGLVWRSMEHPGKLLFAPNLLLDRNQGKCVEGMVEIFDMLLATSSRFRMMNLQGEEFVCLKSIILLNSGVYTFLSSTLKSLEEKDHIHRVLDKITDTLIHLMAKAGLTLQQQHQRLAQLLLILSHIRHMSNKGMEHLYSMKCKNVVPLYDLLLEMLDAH
Description: as §1, §2, §3

[3] = three concentrations, fraction with compound 5

EC50 [1] [µM]	EC50 ([1]; value in parentheses) [µM]	EC50 [2] [µM]	EC50 ([2]; value in parentheses) [µM]	maximal activation of ERβ [1] [fold]	ALP activity with increasing concentration, GAL4-hERβ [1]	concentration at which the maximal activation of ERβ is achieved [1] [µg/mL]	concentration at which the maximal activation of ERβ is achieved ([1]; value in parentheses) [µM]	maximal activation of ERα [2] [fold]	ALP activity with increasing concentration, GAL4-hERα [2]	concentration at which the maximal activation of ERα is achieved [2] [µg/mL]	concentration at which the maximal activation of ERα is achieved ([2]; value in parentheses) [µM]	SMILES	ALP activity, activation of GAL4-hERβ [1, 3]	ALP activity, activation of GAL4-hERα [2, 3]
7.36	7.4	10.7	10.8	3.79	dose-dependent increase	40	50.34	3.68	dose-dependent increase	40	50.34	COc1c(O)c(C)c2c(c1OC)O[C@](C)(CC/C=C(\C)CC/C=C(\C)CC/C=C(\C)CC/C=C(\C)CC/C=C(\C)CC/C=C(\C)CC/C=C(\C)CCC=C(C)C)C=C2 [compound 2, hydro-Q9 chromene]		
1.06	1.06	51	13.3		dose-dependent increase	20	25.2		dose-dependent increase	20	25.2	COC1=C(OC)C(=O)C(C/C=C(\C)CC/C=C(\C)CC/C=C(\C)CC/C=C(\C)CC/C=C(\C)CC/C=C(\C)CC/C=C(\C)CC/C=C(\C)CCC=C(C)C)=C(C)C1=O [compound 3, coenzyme Q9]		
3.19	3.2	12.7	12.7	3.26	dose-dependent increase	20	26.64	2.91	dose-dependent increase	20	26.64	CC(C)=CCC/C(C)=C/CC/C(C)=C/CC/C(C)=C/CC/C(C)=C/CC/C(C)=C/CC/C(C)=C/CC/C(C)=C/CC[C@]1(C)CCc2cc(O)c(C)c(C)c2O1 [compound 6, γ-tocopherol-9]		

More lines, now with the values behind:

SMILES	EC50 [1] [µM]	EC50 ([1]; value in parentheses) [µM]	EC50 [2] [µM]	EC50 ([2]; value in parentheses) [µM]	maximal activation of ERβ [1] [fold]	ALP activity with increasing concentration, GAL4-hERβ [1]	concentration at which the maximal activation of ERβ is achieved [1] [µg/mL]	concentration at which the maximal activation of ERβ is achieved ([1]; value in parentheses) [µM]	maximal activation of ERα [2] [fold]	ALP activity with increasing concentration, GAL4-hERα [2]	concentration at which the maximal activation of ERα is achieved [2] [µg/mL]	concentration at which the maximal activation of ERα is achieved ([2]; value in parentheses) [µM]	ALP activity, activation of GAL4-hERβ [1, 3]	ALP activity, activation of GAL4-hERα [2, 3]
Cc1c(C)c2c(c(C)c1O)CC[C@@](C)(CCC[C@H](C)CCC[C@H](C)CCCC(C)C)O2 [compound 1, RRR-α-tocopherol]	9.19	9.2	2.51	2.5										
COc1cc(/C=C/C(=O)OCC(O)CO)ccc1O (stereo not shown) [compound 5, 1-feruloyl glycerol]													significant increases in the ALP activity	significant increases in the ALP activity
